Test results taken from patent publication US20250154686A1, “COMPOUND LIBRARY” (CHUGAI SEIYAKU KABUSHIKI KAISHA, priority 2021, published 2025).

Biological target: T1, Bcl-2 protein (Recombinant Human Bcl-2 Protein) (Homo sapiens, UniProt P10415)
T1 construct: purchased Novus Biologicals NBP2-34889
Assay: AS-MS evaluation of binding of the Example 4 mixture library (1200 compounds/well) to Bcl-2, ASMS ratio (%)
Settings: mixture library, value belongs to the MS peak assigned to the compound; for ASMS ratio (%) n = 1: replicate n = 1; for ASMS ratio (%) n = 2: replicate n = 2
Outline: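 Affinity-selection MS: 1200 cpds/well, 20 nM each; hBcl-2 20 μM; 25 mM Tris pH 7.4/150 mM NaCl/0.025% Tween-20/1 mM DTT; 1 h, 23 °C, dark; P-2 size-exclusion spin, MeCN:MeOH 1:1 extraction; RP LC/MS; ratio vs no-protein STD and SEC blank.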

T1 sequence (P10415 whole entry): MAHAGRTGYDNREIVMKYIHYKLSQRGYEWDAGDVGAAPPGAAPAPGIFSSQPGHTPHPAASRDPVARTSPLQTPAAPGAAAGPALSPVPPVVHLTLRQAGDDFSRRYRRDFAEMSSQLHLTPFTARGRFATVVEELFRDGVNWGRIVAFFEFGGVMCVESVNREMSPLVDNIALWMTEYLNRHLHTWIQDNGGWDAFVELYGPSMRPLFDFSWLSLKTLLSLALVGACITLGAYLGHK

SMILES	ASMS ratio (%) n = 1	ASMS ratio (%) n = 2
CCOc1cccc(C#Cc2ccccc2C(=O)N2CCN(c3ccc(C(=O)NS(=O)(=O)C(C)(C)C)nn3)CC2)c1 [Compound B2L007-01]	0.0%	−1.0%
CCOc1cncc(C#Cc2ccccc2C(=O)N2CCN(c3ccc(C(=O)NS(=O)(=O)C(C)(C)C)nn3)CC2)c1 [Compound B2L008-01]	0.0%	0.0%
CCOc1cncc(C#Cc2cncc(C(=O)N3CCN(c4ccc(C(=O)NS(=O)(=O)C(C)(C)C)nn4)CC3)c2)c1 [Compound B2L010-01]	0.0%	0.0%
CCOc1cccc(-c2ccccc2CCC(=O)N2CCN(c3ccc(C(=O)NS(=O)(=O)C(C)(C)C)nn3)CC2)c1 [Compound B2L011-01]	0.0%	0.0%
CCOc1cncc(-c2ccccc2CCC(=O)N2CCN(c3ccc(C(=O)NS(=O)(=O)C(C)(C)C)nn3)CC2)c1 [Compound B2L012-01]	4.3%	7.3%
CCOc1cccc(-c2csc(C(=O)N3CCN(c4ccc(C(=O)NS(=O)(=O)C(C)(C)C)cc4)CC3)c2)c1 [Compound B2L023-01, N-tert-Butylsulfonyl-4-[4-[4-(3-ethoxyphenyl)thiophene-2-carbonyl]piperazin-1-yl]benzamide]	0.0%	0.0%
CCOc1cncc(-c2csc(C(=O)N3CCN(c4ccc(C(=O)NS(=O)(=O)C(C)(C)C)cc4)CC3)c2)c1 [Compound B2L024-01, N-tert-Butylsulfonyl-4-[4-[4-(5-ethoxypyridin-3-yl)thiophene-2-carbonyl]piperazin-1-yl]benzamide]	0.0%	0.0%
CCOc1cccc(-c2ccc(C(=O)N3CCN(c4ccc(C(=O)NS(=O)(=O)C(C)(C)C)cc4)CC3)cc2C)c1 [Compound B2L025-01, N-tert-Butylsulfonyl-4-[4-[4-(3-ethoxyphenyl)-3-methylbenzoyl]piperazin-1-yl]benzamide]	0.0%	0.0%
CCOc1cncc(-c2ccc(C(=O)N3CCN(c4ccc(C(=O)NS(=O)(=O)C(C)(C)C)cc4)CC3)cc2C)c1 [Compound B2L026-01, N-tert-Butylsulfonyl-4-[4-[4-(5-ethoxypyridin-3-yl)-3-methylbenzoyl]piperazin-1-yl]benzamide]	0.0%	0.0%
CCOc1cccc(-c2ccc(C(=O)N3CCN(c4ccc(C(=O)NS(=O)(=O)C(C)(C)C)cc4)CC3)cc2F)c1 [Compound B2L027-01, N-tert-Butylsulfonyl-4-[4-[4-(3-ethoxyphenyl)-3-fluorobenzoyl]piperazin-1-yl]benzamide]	0.0%	0.0%

Now from value to compound:

ASMS ratio (%) n = 1	ASMS ratio (%) n = 2	SMILES
5.5%	9.3%	CCOc1cncc(-c2ccc(C(=O)N3CCN(c4ccc(C(=O)NS(=O)(=O)C(C)(C)C)nn4)CC3)cc2C)c1 [Compound B2L004-01]
0.0%	0.0%	CCOc1cccc(-c2ccc(C(=O)N3CCN(c4ccc(C(=O)NS(=O)(=O)C(C)(C)C)nn4)CC3)cc2F)c1 [Compound B2L005-01]
0.0%	0.0%	CCOc1cncc(-c2ccc(C(=O)N3CCN(c4ccc(C(=O)NS(=O)(=O)C(C)(C)C)nn4)CC3)cc2F)c1 [Compound B2L006-01]
0.0%	0.0%	CCOc1cccc(C#Cc2cncc(C(=O)N3CCN(c4ccc(C(=O)NS(=O)(=O)C(C)(C)C)nn4)CC3)c2)c1 [Compound B2L009-01, N-tert-Butylsulfonyl-6-[4-[5-[2-(3-ethoxyphenyl)ethynyl]pyridine-3-carbonyl]piperazin-1-yl]pyridazine-3-carboxamide]
0.0%	0.0%	CCOc1cccc(-c2ccc(C(=O)N3CCN(c4ccc(C(=O)NS(=O)(=O)C(C)(C)C)nn4)CC3)c3ccccc23)c1 [Compound B2L013-01]
0.3%	0.5%	CCOc1cncc(-c2ccc(C(=O)N3CCN(c4ccc(C(=O)NS(=O)(=O)C(C)(C)C)nn4)CC3)c3ccccc23)c1 [Compound B2L014-01, N-tert-Butylsulfonyl-6-[4-[4-(5-ethoxypyridin-3-yl)naphthalene-1-carbonyl]piperazin-1-yl]pyridazine-3-carboxamide]
0.0%	0.0%	CCOc1cccc(-c2cc(C(=O)N3CCN(c4ccc(C(=O)NS(=O)(=O)C(C)(C)C)nn4)CC3)cc(C(C)(C)C)c2)c1 [Compound B2L015-01, 6-[4-[3-tert-Butyl-5-(3-ethoxyphenyl)benzoyl]piperazin-1-yl]-N-tert-butylsulfonylpyridazine-3-carboxamide]
0.0%	−5.4%	CCOc1cncc(-c2cc(C(=O)N3CCN(c4ccc(C(=O)NS(=O)(=O)C(C)(C)C)nn4)CC3)cc(C(C)(C)C)c2)c1 [Compound B2L016-01, 6-[4-[3-tert-Butyl-5-(5-ethoxypyridin-3-yl)benzoyl]piperazin-1-yl]-N-tert-butylsulfonylpyridazine-3-carboxamide]
0.0%	0.0%	CCOc1cccc(-c2cc(C(=O)N3CCN(c4ccc(C(=O)NS(=O)(=O)C(C)(C)C)nn4)CC3)cc(C(F)(F)F)c2)c1 [Compound B2L017-01, N-tert-Butylsulfonyl-6-[4-[3-(3-ethoxyphenyl)-5-(trifluoromethyl)benzoyl]piperazin-1-yl]pyridazine-3-carboxamide]
−1.9%	−2.5%	CCOc1cncc(-c2cc(C(=O)N3CCN(c4ccc(C(=O)NS(=O)(=O)C(C)(C)C)nn4)CC3)cc(C(F)(F)F)c2)c1 [Compound B2L018-01, N-tert-Butylsulfonyl-6-[4-[3-(5-ethoxypyridin-3-yl)-5-(trifluoromethyl)benzoyl]piperazin-1-yl]pyridazine-3-carboxamide]
0.0%	0.0%	CCOc1cncc(C#Cc2cc(C(=O)N3CCN(c4ccc(C(=O)NS(=O)(=O)C(C)(C)C)nn4)CC3)cc(C(F)(F)F)c2)c1 [Compound B2L020-01, N-tert-Butylsulfonyl-6-[4-[3-[2-(5-ethoxypyridin-3-yl)ethynyl]-5-(trifluoromethyl)benzoyl]piperazin-1-yl]pyridazine-3-carboxamide]
0.0%	−14.9%	CCOc1cccc(-c2cnn(-c3cc(C(=O)N4CCN(c5ccc(C(=O)NS(=O)(=O)C(C)(C)C)nn5)CC4)cc(C(F)(F)F)c3)c2)c1 [Compound B2L021-01, N-tert-Butylsulfonyl-6-[4-[3-[4-(3-ethoxyphenyl)pyrazol-1-yl]-5-(trifluoromethyl)benzoyl]piperazin-1-yl]pyridazine-3-carboxamide]
0.0%	0.0%	CCOc1cncc(-c2cnn(-c3cc(C(=O)N4CCN(c5ccc(C(=O)NS(=O)(=O)C(C)(C)C)nn5)CC4)cc(C(F)(F)F)c3)c2)c1 [Compound B2L022-01, N-tert-Butylsulfonyl-6-[4-[3-[4-(5-ethoxypyridin-3-yl)pyrazol-1-yl]-5-(trifluoromethyl)benzoyl]piperazin-1-yl]pyridazine-3-carboxamide]
